Laboratory results published in ChEMBL document CHEMBL5724696, “Autophagy assay results for EUbOPEN Chemogenomics Library” (2024).
Values joined by “and” are separate entries in the source; they are usually repeats but may differ in a detail not shown here. Equal entries are not always repeated.

Assays:
Format in all cases: functional, Homo sapiens
TERT-RPE1 = experiment: (§1) Here: values are normalized to the negative (DMSO; defined as 0% autophagy induction) and positive (250nM Torin1; mTOR inhibitor; defined as maximal inducer of autophagy = 100%) control compounds and represented as % of autophagy induction. […] The impact of autophagy induction on cells is complex and depends on the affected target. As such, the magnitude of a phenotype may not be equally mirrored in the %-value of autophagy induction and vice versa. The dynamics of the induction may indicate the mode of activation: e.g. activation via phosphorylation or a signaling cascade may occur fast, while activation via transcription factors may take considerably longer. […] Of note, treatment concentrations may be sub-optimal for specific compounds, leading to false negative annotations.; conditions: Culturing Media DMEM/F12 (1:1), 1 % Penicillin/Streptomycin, 10% Fetal bovin serum Add-On: No, Screening Media Control DMEM/F12 (1:1), Screening Media Samples DMEM/F12 (1:1)
U2OS [1] = experiment: as §1; conditions: Culturing Media DMEM, 1 % Penicillin/Streptomycin, 10% Fetal bovin serum Add-On: No, Screening Media Control DMEM, Screening Media Samples DMEM
U2OS [2] = experiment: as §1; conditions: Culturing Media DMEM, 1 % Penicillin/Streptomycin, 10% Fetal bovin serum Add-On: No, Screening Media Control DMEM, Screening Media Samples DMEM; remark: listed apart in the source
[3] = Compound Concentration 0.5 uM, Timepoint 12 hours, 12 h, 0.5 µM
[4] = Compound Concentration 0.5 uM, Timepoint 24 hours, 24 h, 0.5 µM
[5] = Compound Concentration 0.5 uM, Timepoint 36 hours, 36 h, 0.5 µM
[6] = Compound Concentration 0.5 uM, Timepoint 60 hours, 60 h, 0.5 µM
[7] = Compound Concentration 2 uM, Timepoint 24 hours, 24 h, 2 µM
[8] = Compound Concentration 2 uM, Timepoint 36 hours, 36 h, 2 µM
[9] = Compound Concentration 10 uM, Timepoint 12 hours, 12 h, 10 µM
[10] = Compound Concentration 10 uM, Timepoint 24 hours, 24 h, 10 µM
[11] = Compound Concentration 10 uM, Timepoint 36 hours, 36 h, 10 µM
[12] = Compound Concentration 10 uM, Timepoint 60 hours, 60 h, 10 µM
[13] = Compound Concentration 0.5 uM, Timepoint 12 hours
[14] = Compound Concentration 0.5 uM, Timepoint 24 hours
[15] = Compound Concentration 0.5 uM, Timepoint 36 hours
[16] = Compound Concentration 0.5 uM, Timepoint 60 hours
[17] = Compound Concentration 2 uM, Timepoint 12 hours
[18] = Compound Concentration 2 uM, Timepoint 24 hours
[19] = Compound Concentration 2 uM, Timepoint 36 hours
[20] = Compound Concentration 2 uM, Timepoint 60 hours
[21] = Compound Concentration 10 uM, Timepoint 12 hours
[22] = Compound Concentration 10 uM, Timepoint 24 hours
[23] = Compound Concentration 10 uM, Timepoint 36 hours
[24] = Compound Concentration 10 uM, Timepoint 60 hours

| Structure (SMILES) | autophagy induction (TERT-RPE1; [3]) | autophagy induction (TERT-RPE1; [4]) | autophagy induction (TERT-RPE1; [5]) | autophagy induction (TERT-RPE1; [6]) | autophagy induction (TERT-RPE1; [7]) | autophagy induction (TERT-RPE1; [8]) | autophagy induction (TERT-RPE1; [9]) | autophagy induction (TERT-RPE1; [10]) | autophagy induction (TERT-RPE1; [11]) | autophagy induction (TERT-RPE1; [12]) | autophagy induction (U2OS [1]; [13]) [%] | autophagy induction (U2OS [1]; [14]) [%] | autophagy induction (U2OS [1]; [15]) [%] | autophagy induction (U2OS [1]; [16]) [%] | autophagy induction (U2OS [1]; [17]) [%] | autophagy induction (U2OS [1]; [18]) [%] | autophagy induction (U2OS [1]; [19]) [%] | autophagy induction (U2OS [1]; [20]) [%] | autophagy induction (U2OS [1]; [21]) [%] | autophagy induction (U2OS [1]; [22]) [%] | further results |
| --- | --- | --- | --- | --- | --- | --- | --- | --- | --- | --- | --- | --- | --- | --- | --- | --- | --- | --- | --- | --- | --- |
| CCCCCCCCCCCCCCCCOC[C@H](COP(=O)([O-])OCC[N+](C)(C)C)OC(C)=O | -0.9527% and 1.704% | -3.436% and -0.1454% | -3.259% and 2.221% | -5.529% and 3.615% | -0.2119% and 13.6511% | -1.573% and 9.518% | 8.2187% and 7.039% | 4.065% and 6.451% | 4.665% and 7.035% | 6.217% and 11.8263% | 2.963 | 0.1782 | 2280.79 | -1.799 | -5.387 | -3.326 | 2231.79 | -1.895 | -2.708 | -1.793 | autophagy induction (TERT-RPE1; Compound Concentration 2 uM, Timepoint 60 hours, 60 h, 2 µM): -2.541% and 14.6368%; autophagy induction (U2OS [1]; [23]): 678.152%; autophagy induction (U2OS [1]; [24]): 1.655%; autophagy induction (U2OS [2]; [13]): 1.863%; autophagy induction (U2OS [2]; [14]): 3.665%; autophagy induction (U2OS [2]; [15]): -3.033%; autophagy induction (U2OS [2]; [16]): -9.658%; autophagy induction (U2OS [2]; [17]): 2.298%; autophagy induction (U2OS [2]; [18]): -2.882%; autophagy induction (U2OS [2]; [19]): -2.921%; autophagy induction (U2OS [2]; [20]): -2.8%; autophagy induction (U2OS [2]; [21]): 10.6263%; autophagy induction (U2OS [2]; [22]): 0.8651%; autophagy induction (U2OS [2]; [23]): 6.18%; autophagy induction (U2OS [2]; [24]): 5.674% |
| CN1CCCC(n2nc(Cc3ccc(Cl)cc3)c3ccccc3c2=O)CC1.Cl (stereo not given) [AZELASTINE HYDROCHLORIDE] | -4.87% and -1.0131% | -4.869% and -0.0662% | -3.53% and 2.514% | -2.083% and 5.845% | 1.534% and 9.267% | 3.816% and 8.147% | 7.066% and 3.619% | 11.8407% and 4.087% | 14.8577% and 6.608% | 14.3498% and 13.0687% | -1.752 | -3.995 | 606.483 | -3.291 | -6.53 | -3.506 | -60.9405 | -3.3303 | -10.1026 | -0.8464 | autophagy induction (TERT-RPE1; Compound Concentration 2 uM, Timepoint 12 hours, 12 h, 2 µM): 2.2259% and 11.1438%; autophagy induction (U2OS [1]; [23]): -60.027%; autophagy induction (U2OS [1]; [24]): -3.2037%; autophagy induction (U2OS [2]; [13]): 28.6217%; autophagy induction (U2OS [2]; [14]): 20.8368%; autophagy induction (U2OS [2]; [15]): 11.7893%; autophagy induction (U2OS [2]; [16]): 4.08%; autophagy induction (U2OS [2]; [17]): -10.9736%; autophagy induction (U2OS [2]; [18]): -5.743%; autophagy induction (U2OS [2]; [19]): -1.742%; autophagy induction (U2OS [2]; [20]): -7.358%; autophagy induction (U2OS [2]; [21]): 1.941%; autophagy induction (U2OS [2]; [22]): 10.8687%; autophagy induction (U2OS [2]; [23]): 9.578%; autophagy induction (U2OS [2]; [24]): 17.8748% |
